Results on eight compounds are retold here after publication PMC6197089, “Disubstituted piperazine analogues of trifluoromethylphenylpiperazine and methylenedioxybenzylpiperazine: analytical differentiation and serotonin receptor binding studies” (Forensic sciences research, 2018).

A word on the Ki: it is a dissociation constant, usually derived from enzyme kinetics or from competition with a known ligand.

The test system of series [1] is cardiomyoblast h9c2 cells. Particulars: cited from earlier work.
The target in series [2] is T1, 5-HT1A receptors (Homo sapiens, UniProt P08908).
T1 construct: University of North Carolina Psychoactive Drug Screening Project (PDSP), contract testing
T1 sequence (P08908 1-422): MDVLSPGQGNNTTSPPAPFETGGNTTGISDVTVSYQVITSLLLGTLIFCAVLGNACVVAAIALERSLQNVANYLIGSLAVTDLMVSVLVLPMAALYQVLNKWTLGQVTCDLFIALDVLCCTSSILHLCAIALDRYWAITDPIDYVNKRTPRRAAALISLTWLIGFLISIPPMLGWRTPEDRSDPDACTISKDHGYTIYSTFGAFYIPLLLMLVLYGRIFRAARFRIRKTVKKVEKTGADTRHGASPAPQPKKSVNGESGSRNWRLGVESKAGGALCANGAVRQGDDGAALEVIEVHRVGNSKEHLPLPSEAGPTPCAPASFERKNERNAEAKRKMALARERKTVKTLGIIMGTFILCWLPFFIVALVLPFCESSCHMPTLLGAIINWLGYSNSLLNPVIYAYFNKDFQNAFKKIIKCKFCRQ
The experiment in a line: PDSP radioligand competition binding, 5-HT1A. As to conditions: secondary binding assay, average of n = 3. The method, then:
(§1) All six of the hybrid TFMPP–MDBP regioisomers reported in this manuscript were tested for their serotonin receptor and reuptake pump binding profiles by the University of North Carolina's Psychoactive Drug Screening Project (PDSP). Initially, each isomer was tested in a primary assay at a concentration of 10 umol/L for its ability to displace a standard ligand at each serotonin receptor and transporter subtype. […] The Ki (nmol/L) values were obtained from non-linear regression of radioligand competition binding isotherms in this assay and calculated from best-fit inhibitory concentration IC50 values using the Cheng–Prusoff equation. The reported values are the average of three (n = 3) determinations. Further experimental details regarding these receptor assays are presented in the PDSP Protocol Manual available at the PDSP website.
In general terms: In a radioligand displacement assay an active substance lowers the binding of a labelled ligand.

The target of a further series is T2, 5-HT2B receptors (Homo sapiens, UniProt P41595).
T2 construct: University of North Carolina Psychoactive Drug Screening Project (PDSP), contract testing
T2 sequence (P41595 whole entry): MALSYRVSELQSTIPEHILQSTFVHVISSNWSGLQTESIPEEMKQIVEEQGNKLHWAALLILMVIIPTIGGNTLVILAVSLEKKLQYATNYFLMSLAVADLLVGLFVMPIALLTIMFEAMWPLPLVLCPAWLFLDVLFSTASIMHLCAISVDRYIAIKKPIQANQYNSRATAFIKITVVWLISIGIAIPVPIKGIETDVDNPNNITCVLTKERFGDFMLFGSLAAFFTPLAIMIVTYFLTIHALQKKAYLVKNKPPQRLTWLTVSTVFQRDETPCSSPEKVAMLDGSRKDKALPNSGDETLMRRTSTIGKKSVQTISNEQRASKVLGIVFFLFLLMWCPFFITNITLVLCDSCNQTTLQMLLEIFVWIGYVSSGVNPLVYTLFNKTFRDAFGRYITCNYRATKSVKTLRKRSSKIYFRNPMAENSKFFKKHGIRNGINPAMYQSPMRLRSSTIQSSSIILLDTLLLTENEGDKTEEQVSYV
Kind of series: PDSP radioligand competition binding, 5-HT2B. Particulars: secondary binding assay, average of n = 3. The protocol: as §1

Another series deals with T3, 5-HT7 receptors (Homo sapiens, UniProt P34969).
T3 construct: University of North Carolina Psychoactive Drug Screening Project (PDSP), contract testing
T3 sequence (P34969 whole entry): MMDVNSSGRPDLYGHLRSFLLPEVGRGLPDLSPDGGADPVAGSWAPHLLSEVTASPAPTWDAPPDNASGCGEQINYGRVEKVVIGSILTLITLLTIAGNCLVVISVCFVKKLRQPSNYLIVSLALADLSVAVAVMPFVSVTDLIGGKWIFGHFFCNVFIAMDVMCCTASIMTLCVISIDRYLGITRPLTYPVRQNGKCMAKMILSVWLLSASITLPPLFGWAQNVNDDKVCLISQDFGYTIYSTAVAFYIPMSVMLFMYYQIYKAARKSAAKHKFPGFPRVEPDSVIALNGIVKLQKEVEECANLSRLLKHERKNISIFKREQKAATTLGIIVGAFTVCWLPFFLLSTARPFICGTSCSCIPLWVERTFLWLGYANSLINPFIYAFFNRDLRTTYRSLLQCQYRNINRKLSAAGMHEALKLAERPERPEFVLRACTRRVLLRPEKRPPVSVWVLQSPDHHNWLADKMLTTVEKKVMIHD
The experiment in a line: PDSP radioligand competition binding, 5-HT7. Particulars: for Ki: secondary binding assay, average of n = 3. The protocol: as §1

Series [3] deals with T4, 5-HT2A receptors (Homo sapiens, UniProt P28223).
T4 construct: University of North Carolina Psychoactive Drug Screening Project (PDSP), contract testing
T4 sequence (P28223 whole entry): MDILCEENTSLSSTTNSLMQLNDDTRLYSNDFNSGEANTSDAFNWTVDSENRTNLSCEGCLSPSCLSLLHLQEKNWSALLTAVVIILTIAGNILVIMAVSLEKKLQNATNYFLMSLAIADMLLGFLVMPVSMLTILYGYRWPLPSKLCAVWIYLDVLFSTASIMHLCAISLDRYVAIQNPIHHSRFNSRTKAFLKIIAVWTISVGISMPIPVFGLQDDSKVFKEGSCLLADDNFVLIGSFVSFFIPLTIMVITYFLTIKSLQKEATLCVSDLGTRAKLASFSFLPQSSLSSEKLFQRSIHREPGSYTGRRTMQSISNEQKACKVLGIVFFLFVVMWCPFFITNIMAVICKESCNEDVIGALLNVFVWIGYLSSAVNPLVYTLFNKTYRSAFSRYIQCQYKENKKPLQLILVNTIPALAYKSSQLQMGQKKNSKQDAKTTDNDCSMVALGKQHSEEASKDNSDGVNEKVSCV
The experiment in a line: PDSP radioligand competition binding, 5-HT2A. Particulars: for Ki: secondary binding assay, average of n = 3. The method, then: as §1

The target in series [4] is T5, SERT (serotonin reuptake pump) (Homo sapiens, UniProt P31645).
T5 construct: University of North Carolina Psychoactive Drug Screening Project (PDSP), contract testing
T5 sequence (P31645 whole entry, species assumed): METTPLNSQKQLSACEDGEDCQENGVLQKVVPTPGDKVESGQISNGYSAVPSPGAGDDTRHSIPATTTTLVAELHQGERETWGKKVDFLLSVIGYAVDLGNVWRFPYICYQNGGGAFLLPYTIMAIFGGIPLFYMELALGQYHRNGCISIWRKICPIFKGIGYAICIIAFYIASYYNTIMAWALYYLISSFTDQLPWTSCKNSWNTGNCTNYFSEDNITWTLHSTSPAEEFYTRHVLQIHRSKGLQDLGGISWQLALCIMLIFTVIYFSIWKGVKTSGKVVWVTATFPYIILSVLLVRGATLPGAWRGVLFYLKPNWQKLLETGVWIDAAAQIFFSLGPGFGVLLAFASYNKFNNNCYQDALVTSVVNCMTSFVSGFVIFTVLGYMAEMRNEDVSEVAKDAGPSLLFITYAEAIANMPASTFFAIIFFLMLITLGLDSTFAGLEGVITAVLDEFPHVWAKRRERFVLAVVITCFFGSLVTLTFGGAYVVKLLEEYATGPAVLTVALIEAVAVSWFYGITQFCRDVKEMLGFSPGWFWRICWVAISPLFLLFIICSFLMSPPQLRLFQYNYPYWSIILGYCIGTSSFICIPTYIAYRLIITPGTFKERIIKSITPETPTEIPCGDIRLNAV
Kind of series: PDSP radioligand competition binding, SERT. Particulars: for Ki: secondary binding assay, average of n = 3. The method, then:
as §1

Another series concerns the target T6, 5-HT2C receptors (Homo sapiens, UniProt P28335).
T6 construct: University of North Carolina Psychoactive Drug Screening Project (PDSP), contract testing
T6 sequence (P28335 33-458): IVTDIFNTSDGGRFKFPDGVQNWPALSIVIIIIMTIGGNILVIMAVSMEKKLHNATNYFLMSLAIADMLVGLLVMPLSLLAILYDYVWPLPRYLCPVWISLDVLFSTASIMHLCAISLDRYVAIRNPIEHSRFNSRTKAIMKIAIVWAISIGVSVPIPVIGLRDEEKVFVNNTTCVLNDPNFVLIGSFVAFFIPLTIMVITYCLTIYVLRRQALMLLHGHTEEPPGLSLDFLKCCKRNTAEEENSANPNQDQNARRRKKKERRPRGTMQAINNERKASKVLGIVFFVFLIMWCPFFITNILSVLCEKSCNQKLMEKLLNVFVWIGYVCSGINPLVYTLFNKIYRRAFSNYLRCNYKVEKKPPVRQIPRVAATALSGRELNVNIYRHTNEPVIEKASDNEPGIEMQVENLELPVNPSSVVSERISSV
Kind of series: PDSP radioligand competition binding, 5-HT2C. As to conditions: for Ki: secondary binding assay, average of n = 3. The protocol:
as §1

Another series has as its target 5-HT1B receptors. Particulars: literature value, no reference given; cited from earlier work.
The subject of the next series is SERT. As to conditions: no reference given, cited from earlier work.
Series [5] concerns dopamine and norepinephrine reuptake pumps. As to conditions: literature, no reference given; cited from earlier work.
Series [6] has as its target T1, 5-HT1A receptors. Particulars: read-out: Ki, 5-HT1A; literature value, no reference given; cited from earlier work.
Series [7] concerns 5-HT1A, 5-HT1B, 5-HT1D and 5-HT2C receptors. As to conditions: literature, no reference given; cited from earlier work.
Series [8] concerns other serotonin receptor subtypes. As to conditions: literature, no reference given; cited from earlier work.
Another series concerns 5-HT2A receptor. Particulars: literature, no reference given; cited from earlier work.
Another series has as its target 5-HT1D receptors. Particulars: literature value, no reference given; cited from earlier work.
Series [9] has as its target T4, 5-HT2A receptors. As to conditions: read-out: Ki, 5-HT2A; literature value, no reference given; cited from earlier work.

Read-outs that look alike come from different tables or passages of the source. Bounds are passed on as bounds.

Take `c1cc2c(cc1CN1CCNCC1)OCO2` [3,4-MDBP, 1-(3,4-methylenedioxybenzyl) piperazine]: in series [1], the intracellular calcium levels entry was “significant increase” and the mitochondrial membrane potential entry is given as “decrease”.

`FC(F)(F)c1ccccc1N1CCN(Cc2cccc3c2OCO3)CC1` [Compound 1, 2-TFMPP-2,3-MDBP]: the Ki on 5-HT1A receptors [2] is above 1000 nM; at 5-HT2B receptors, 74.5 nM; on 5-HT7 receptors it was 165 nM; on 5-HT2A receptors [3], above 1000 nM; in [4] it was above 1000 nM; at 5-HT2C receptors it was 868 nM. Besides, the “binding by 5-HT7 receptors, in words” value was “bound by 5-HT7 receptors” on 5-HT7 receptors and “highest affinity” at 5-HT7 receptors (listed as 2-TFMPP-2,3-MDBP). For the same compound, at 5-HT2C receptors, the “binding to 5-HT2C receptors, in words” value was “modest binding”.

For the compound `FC(F)(F)c1cccc(N2CCN(Cc3cccc4c3OCO4)CC2)c1` [Compound 2, 3-TFMPP-2,3-MDBP], the Ki on 5-HT1A receptors [2] was 864 nM; on 5-HT2B receptors it was 203 nM; on 5-HT7 receptors, 747 nM; on 5-HT2A receptors [3], 372 nM; in series [4], above 1000 nM; on 5-HT2C receptors it was 753 nM. In addition, the “binding by 5-HT7 receptors, in words” value at 5-HT7 receptors was “bound by 5-HT7 receptors”. Also, the “affinity at 5-HT2A receptors compared to 3-TFMPP, in words” value on 5-HT2A receptors [3] was “retained activity comparable to the parent designer drug”. Besides, the “binding to 5-HT2C receptors, in words” value at 5-HT2C receptors was “modest binding”.

In the case of `FC(F)(F)c1ccc(N2CCN(Cc3cccc4c3OCO4)CC2)cc1` [Compound 3, 4-TFMPP-2,3-MD], the inhibitory constant (Ki) is above 1000 nM on 5-HT1A receptors [2]; 870 nM on 5-HT2B receptors; above 1000 nM on 5-HT7 receptors; above 1000 nM on 5-HT2A receptors [3]; above 1000 nM in [4]; above 1000 nM on 5-HT2C receptors.

In the case of `FC(F)(F)c1cccc(N2CCNCC2)c1` [Compound 3-TFMPP, 1-(3-trifluoromethylphenyl) piperazine], the Ki was 132 nM on 5-HT1B receptors, 288 nM at 5-HT1A receptors [6], 282 nM on 5-HT1D receptors and 269 nM at 5-HT2A receptors [9]. Further, in series [1], the intracellular calcium levels result was “significant increase”. Further, the mitochondrial membrane potential entry in series [1] is listed as “decrease”. Also, in the series on SERT (literature value, read-out: effective concentration (EC50) at SERT), the EC50 is 121 nM. Besides, in the series with SERT (literature), the “serotonin release, in words” value is reported as “promotes serotonin release”. In series [5], the “effects on dopamine and norepinephrine reuptake pumps” value is listed as “no effects”. For the same compound, in series [7], the “functional activity at all sites except 5-HT2A” value is “full agonist”. Besides, in series [8], the “affinity for other serotonin receptor subtypes, in words” value is given as “does not show significant affinity”. For the same compound, the “functional activity at the 5-HT2A receptor” value in the series with 5-HT2A receptor was “weak partial agonist or antagonist”.

`FC(F)(F)c1ccccc1N1CCN(Cc2ccc3c(c2)OCO3)CC1` [Compound 4, 2-TFMPP-3,4-MDBP]: the Ki on 5-HT1A receptors [2] is above 1000 nM; on 5-HT2B receptors, 81 nM; at 5-HT7 receptors, 462 nM; on 5-HT2A receptors [3], above 1000 nM; in series [4], above 1000 nM; on 5-HT2C receptors, 924 nM. In addition, the “binding by 5-HT7 receptors, in words” value at 5-HT7 receptors is given as “bound by 5-HT7 receptors”. The “binding to 5-HT2C receptors, in words” value at 5-HT2C receptors is reported as “modest binding”.

With `FC(F)(F)c1cccc(N2CCN(Cc3ccc4c(c3)OCO4)CC2)c1` [Compound 5, 3-TFMPP-3,4-MDBP], the Ki at 5-HT1A receptors [2] is 188 nM; on 5-HT2B receptors it was 116 nM; on 5-HT7 receptors, 516 nM; at 5-HT2A receptors [3], above 1000 nM; in series [4] it was above 1000 nM; at 5-HT2C receptors, 430 nM. In addition, at 5-HT7 receptors, the “binding by 5-HT7 receptors, in words” value is “bound by 5-HT7 receptors”. The “binding to 5-HT2C receptors, in words” value at 5-HT2C receptors is reported as “modest binding”.

For the compound `FC(F)(F)c1ccc(N2CCN(Cc3ccc4c(c3)OCO4)CC2)cc1` [Compound 6, 4-TFMPP-3,4-MDBP], the Ki at 5-HT1A receptors [2] was above 1000 nM; on 5-HT2B receptors, 247 nM; at 5-HT7 receptors it was above 1000 nM; on 5-HT2A receptors [3], above 1000 nM; in series [4] it was 722 nM; at 5-HT2C receptors it was above 1000 nM. Moreover, the “affinity for SERT pumps, in words” value in series [4] is on record as “significant affinity”. In addition, in series [4], the “potency at SERT relative to monosubstituted 3-TFMPP” value is reported as “about six-times less potent”.
